Data reported in ChEMBL document CHEMBL1150615, “Swinhoeiamide A, a new highly active calyculin derivative from the marine sponge Theonella swinhoei” (2002).
In brackets after ≈: the same amount, converted by molar mass.

Assays:
Assay type in all cases: functional
Spodoptera littoralis [1] = test: Insecticidal activity against Spodoptera littoralis larvae dosed into hemolymph injection measured per 1000 mg of larval body weight measured after 48 hrs
Spodoptera littoralis [2] = test: Insecticidal activity against Spodoptera littoralis larvae after 6 days by chronic feeding assay; settings: 144 h
Spodoptera littoralis [3] = test: Insecticidal activity against Spodoptera littoralis larvae after 5 days by topical contact assay
Aspergillus fumigatus = test: Antifungal activity against Aspergillus fumigatus by serial dilution assay
Candida albicans = test: Antifungal activity against Candida albicans by serial dilution assay
Cladosporium cucumerinum = test: Antifungal activity against Cladosporium cucumerinum at 25 nmol by bioautographic method

| Compound | LD50 (Spodoptera littoralis [1]) [µg] | LC50 (Spodoptera littoralis [2]) [µg/mL] | LD50 (Spodoptera littoralis [3]) [µg] | MIC (Aspergillus fumigatus) [µg/mL] | MIC (Candida albicans) [µg/mL] | inhibition zone (IZ) (Cladosporium cucumerinum) [mm] |
| --- | --- | --- | --- | --- | --- | --- |
| COC[C@@H]([C@H](O)[C@H](O)C(=O)NCC[C@H](C)c1nc(/C=C/C[C@@H]2O[C@]3(C[C@@H](O)[C@@H]2C)O[C@H]([C@H](C[C@H](O)[C@H](C)[C@H](O)[C@H](C)/C=C(C)/C(C)=C/C=C/C(C)=C\C#N)OC)[C@H](OP(=O)(O)O)C3(C)C)co1)N(C)C [CALYCULIN A] | 1 |  |  |  |  |  |
| CO[C@H]1C[C@]2(O[C@H]([C@@H](C[C@H](O)[C@H](C)[C@H](O)[C@H](C)/C=C(C)/C(C)=C/CC/C(C)=C\C(N)=O)OC)[C@H](OP(=O)(O)O)C2(C)C)O[C@H](C/C=C/c2coc(C)n2)[C@H]1C [SWINHOEIAMIDE A] | 0.98 | 2.98 (≈ 3.74 µM) | 10 | 1 (≈ 1.25 µM) | 1.2 (≈ 1.51 µM) | 14 |
